Measured values: US5631133A, “Transition in transcriptional activation by intracellular hormone receptors at the tumor stage of dermal fibrosarcoma development” (The Regents of the University of California, priority 1995, dated 1997)

How the values were obtained:
[1] = molecular target: glucocorticoid receptor (GR) (Mus musculus, UniProt P06537); conditions: NF, MF, AF and FS cells; 500 nM dexamethasone, 2 h
Procedure: Cells were grown in 24-well plates (Corning). The medium was changed to serum-free, phenol-red free DMEM, supplemented with insulin (5 μg/ml) and transferrin (10 μg/ml), with or without 500 nM dexamethasone for 2 h. After three washes with ice-cold PBS, cells were fixed with cold (-20° C.) methanol for 10 min, and then washed with TBS. Nonspecific binding sites were blocked in blocking buffer (BB) (TBS, 1% Triton, 1% glycine, 3% bovine serum albumin and 10% normal goat serum). […] Diaminobenzidine (Sigma) was used as a substrate for the peroxidase reaction.
To assesss the nature of the differential GR activity, we examined the ligand-dependent nuclear translocation of GR in normal dermal fibroblasts and the three progressive conditions, MF, AF and FS.

[2] = molecular target: endogenous glucocorticoid receptor (GR) (Mus musculus, UniProt P06537)
Procedure: Cultures were established from skin and tumor tissues of several independent BPV transgenic mice (Sippola-Thiele et al., 1989), and maintained in Dulbecco's modified Eagle's medium (DMEM-21, high glucose formulation; Gibco-BRL) containing 8% fetal calf serum (Hyclone). Cells were propagated for no longer than five weeks and always used at low passage number (1-30). Several cultures were tested from each stage of the tumorigenic process: normal fibroblasts, NF (23784, 40950); mild fibromatosis, MF (39614, 14249, 27877); aggressive fibromatosis, AF (BPV7, BPV3, BPV21); fibrosarcoma, FS (BPV1, BPV22, BPV2, BPV11).
Cells were plated at least 12 h before transfeetion at ~0.5×10^6 cells per 6 cm dish. Reporter gene DNA (2 μg), together with the 6RZ (100 ng) as an internal control for efficiency of transfection, were introduced into cells using the DEAE-dextran method (Ausubel). Where indicated, the expression vector 6RGR was co-transfected. After exposure to the DNA/DEAE-dextran mixture, the cells were incubated for 24 h in fresh medium containing charcoal-strippedserum (Miesfeld et al., 1987) with or without 100 nM dexamethasone (Sigma). Cells were harvested and the luciferase activity measured according to the instructions of the manufacturer (Promega) and normalized for β-galactosidase expression as previously described (Miner and Yamamoto (1992) Genes Dev., 6:2491-2501). Each experiment was repeated at least six times and the results averaged.
To monitor the activity of the endogenous glucocorticoid receptor (GR) during dermal fibroblast tumorigenesis, we performed transient transfection assays using low passage primary cell lines representative of the four stages in this multistep pathway: normal dermal fibroblasts, NF; mild fibromatosis, MF; aggressive fibromatosis, AF; fibrosarcoma, FS. […] We first measured the hormone responsiveness of a reporter construct, TAT3-Luc, containing three tandem simple GREs derived from the tyrosine aminotransferase (TAT) gene (Jantzen et al., 1987).

[3] = tested on: GR and AP-1 (composite element G(26)A); test: Transient transfection of G(26)A3-Luc composite GRE luciferase reporter, hormone responsiveness; assay type: cell-based, mouse; conditions: 100 nM dexamethasone, 24 h
Source text: Where indicated, the expression vector 6RGR was co-transfected.
In view of the observed changes in GR and AP-1 activities, we next tested a composite element that requires both factors for transcriptional activation. The synthetic composite element, G(26)A, which resembles a sequence in the glucocorticoid regulatory region of the glutamine synthetase gene (Zhang and Young (1991) J. Biol. Chem., 266:24332-24338), contains the TAT GRE sequence linked through a 15 bp spacer to the collagenase AP-1 sequence. In this configuration, neither GR alone nor AP-1 alone (either Jun homodimers or Jun-Fos heterodimers) activates a linked reporter gene in transfected embryonal earcinoma F9 cells (which express low levels of endogenous GR and AP-1 factors), whereas co-transfection of GR and AP-1 (Jun-Jun or Jun-Fos) produces a strong synergistic activation upon hormone addition. We transfected a luciferase reporter construct containing three copies of the G(26)A composite element, G(26)A3-Luc, into cell cultures representing each stage of the fibrosarcoma progression.

Sequence of endogenous glucocorticoid receptor (GR) (P06537 whole entry): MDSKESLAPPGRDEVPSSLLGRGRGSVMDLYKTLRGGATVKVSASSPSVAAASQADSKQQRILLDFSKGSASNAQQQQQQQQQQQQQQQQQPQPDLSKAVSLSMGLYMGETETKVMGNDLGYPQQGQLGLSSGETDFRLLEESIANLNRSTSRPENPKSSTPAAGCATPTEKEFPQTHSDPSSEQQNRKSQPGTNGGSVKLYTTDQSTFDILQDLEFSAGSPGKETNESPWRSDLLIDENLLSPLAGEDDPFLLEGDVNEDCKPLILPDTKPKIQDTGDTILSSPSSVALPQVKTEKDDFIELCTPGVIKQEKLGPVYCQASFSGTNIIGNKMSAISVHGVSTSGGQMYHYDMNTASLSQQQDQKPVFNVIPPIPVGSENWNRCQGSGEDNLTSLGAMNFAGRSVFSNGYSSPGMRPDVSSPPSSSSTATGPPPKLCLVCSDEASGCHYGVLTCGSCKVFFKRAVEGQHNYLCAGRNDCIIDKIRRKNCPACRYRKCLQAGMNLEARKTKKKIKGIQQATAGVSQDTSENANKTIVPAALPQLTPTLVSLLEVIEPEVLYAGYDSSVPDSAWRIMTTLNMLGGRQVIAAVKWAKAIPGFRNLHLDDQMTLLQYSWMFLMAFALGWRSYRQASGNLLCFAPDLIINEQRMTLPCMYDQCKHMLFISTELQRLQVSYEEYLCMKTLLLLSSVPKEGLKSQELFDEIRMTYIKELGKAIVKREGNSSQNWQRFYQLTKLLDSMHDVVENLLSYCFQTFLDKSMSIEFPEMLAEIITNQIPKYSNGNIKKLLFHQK
Sequence of glucocorticoid receptor (GR) (P06537 whole entry): as above

C[C@@H]1C[C@H]2[C@@H]3CCC4=CC(=O)C=C[C@]4(C)[C@@]3(F)[C@@H](O)C[C@]2(C)[C@@]1(O)C(=O)CO [dexamethasone]
nuclear translocation of GR [1]: efficiently translocated to the nucleus
hormonal induction of luciferase activity (TAT3-Luc) ([2]; FS (fibrosarcoma) cells, 100 nM dexamethasone, 24 h): strong hormonal induction
stimulation of basal luciferase activity (TAT3-Luc) ([2]; NF, MF or AF cell lines, 100 nM dexamethasone, 24 h): only a modest stimulation
transcriptional response (TAT3-Luc) ([2]; nNF, dermal fibroblasts from non-transgenic mice): low transcriptional response
hormonal induction through the G(26)A element ([3]; AF cells): only a modest hormonal induction
induction of luciferase activity (G(26)A3-Luc) ([3]; tumor (FS) cells): dramatically induced
